PMC11542721, “Molecular properties, including chameleonicity, as essential tools for designing the next generation of oral beyond rule of five drugs” (ADMET & DMPK, 2024)
Like-named read-outs stand apart in the source and are kept apart here.

Legend:
[1] = IAM chromatography (log kw^IAM and Δ log kw^IAM); type: physicochemical; conditions: for log kw^IAM: IAM column, extrapolated to 0% organic solvent; for Δ log kw^IAM: polarity descriptor
Description: Furthermore, RP-HPLC methods generate biomimetic environments. For example, immobilized artificial membrane (IAM) chromatography, first introduced by Charles Pidgeon and his colleagues, is used to simulate biological cell membranes. IAM columns consist of a monolayer of phosphatidylcholine covalently bound to an inert silica support . The reference descriptor is the logarithm of the capacity factor at 0% organic solvent (extrapolated value), named log kW^IAM. In the IAM system, the retention of charged molecules also depends on the electrostatic interactions with the phospholipid heads.
Without entering the method details that can be retrieved in the literature, Δ log kw^IAM represents the polarity of the analyte.

[2] = BRlogD chromatographic lipophilicity (octanol/water surrogate)
[3] = Ionization behaviour from variation of log k'80 PLRP-S at three pHs; type: physicochemical; conditions: for A/B: acid or base profile: log k'80 PLRP-S at acidic, neutral and basic pH
Description: The ionization constant (usually reported as pKa) is an important parameter for evaluating ionizable molecules since it may have a decisive impact on the in vitro ADME properties. […] Since the experimental determination of pKa is not a trivial assay and a certain degree of expertise is required, Caron’s group observed that the ionization behaviour (not the pKa) of a molecule can be obtained by monitoring the variation of the log of the capacity factor in the PLRP-S system (log k'80 PLRP-S) vs. the pH [15]. […] In many cases, ionization is completely overlooked, and in some instances, it is predicted using standard calculators not designed for large, flexible molecules.
Then, we focused on experimental descriptors. We first explored the ionization behavior of the three PROTACS by monitoring the variation in log k'80 PLRP-s at three pHs.

[4] = cited from earlier work
[5] = mouse; cited from earlier work
[6] = system: Bcl-xL (B-cell lymphoma extra-large); parameters: method as in PMID 32677976; conditions: cancer cells, preclinical studies; cited from earlier work
[7] = Chamelogk chromatographic chameleonicity descriptor (PLRP-S); type: physicochemical; conditions: Exp. minus Ext. log k' 100 PLRP-S
Protocol: Therefore, we recently implemented a chromatographic descriptor, Chamelogk, that measures chameleonicity in a unique and dynamic system. To obtain Chamelogk (Figure 5B), the first step involves the experimental determination of the capacity factor (log k' PLRP-S) at 50, 60, and 70 % of acetonitrile. Then, the linear correlation between the log k' PLRP-S and the percentage of MeCN is determined. The equation derived from the linear correlation is then applied to extrapolate the capacity factor at 100 % (called Ext. log k’ 100 PLRP-S). Then, the experimental value at 100 % MeCN is measured (named Exp. log k’ 100 PLRP-S) and the difference with the extrapolated value is calculated. Thus, Chamelogk is defined as the capacity factor difference (Δ log k') between the experimental log k' measured at 100 % MeCN (Exp. log k' 100) and the extrapolated value (Ext. log k’ 100), as shown by Equation 2 and Figure 5B.

[8] = system: enzalutamide-insensitive tumours; parameters: method as in PMID 36508999; conditions: cited from earlier work
[9] = preclinical models; cited from earlier work
ER (estrogen receptor) = system: ER (estrogen receptor); parameters: method as in doi:10.1016/j.annonc.2023.09.567; conditions: tumor cell lines, in vitro; cited from earlier work
advanced breast cancer = system: advanced breast cancer; parameters: method as in doi:10.1016/j.annonc.2023.09.567; conditions: phase I and II, cited from earlier work
[10] = RP-HPLC, surrogate of octanol/water

Row | log kw^IAM [1] | chromatographic logD [2, 10] | A/B: acid or base profile [3] | Δ log kw^IAM [1] | Chamelogk [7] | chromatographic logD [2] | Ionization state at pH 7 [3] | SMILES | Absorption [4] | Oral bioavailability F [5] | Degradation of Bcl-xL [6] | Tumour growth in vivo [8] | Oral bioavailability F [9] | ER degradation (ER (estrogen receptor)) | Clinical activity (advanced breast cancer; advanced breast cancer patients) | Tolerability (advanced breast cancer; all doses orally administered)
1 | > 4 | > 6 | ampholyte | – | – | – | – | Cc1ncsc1-c1ccc([C@H](C)NC(=O)[C@@H]2C[C@@H](O)CN2C(=O)[C@@H](NC(=O)CCCCCC(=O)N2CCN(CC[C@H](CSc3ccccc3)Nc3ccc(S(=O)(=O)NC(=O)c4ccc(N5CCN(CC6=C(c7ccc(Cl)cc7)CCC(C)(C)C6)CC5)cc4)cc3S(=O)(=O)C(F)(F)F)CC2)C(C)(C)C)cc1 [DT2216] | Intravenous | < 0.03% | selectively induced degradation of Bcl-xL | – | – | – | – | –
2 | 3.39 | 4.73 | basic and Base | 0.07 | – | – | predominantly neutral | O=C1CC[C@H](N2Cc3cc(N4CCN(CC5CCN(c6ccc([C@@H]7c8ccc(O)cc8CC[C@@H]7c7ccccc7)cc6)CC5)CC4)ccc3C2=O)C(=O)N1 [ARV-471, vepdegestrant] | Oral | – | – | – | > 30% | up to 97% | showed clinical activity | well tolerated

The remaining lines, values behind:

Row | SMILES | log kw^IAM [1] | chromatographic logD [2, 10] | A/B: acid or base profile [3] | Δ log kw^IAM [1] | Chamelogk [7] | chromatographic logD [2] | Ionization state at pH 7 [3] | Absorption [4] | Oral bioavailability F [5] | Degradation of Bcl-xL [6] | Tumour growth in vivo [8] | Oral bioavailability F [9] | ER degradation (ER (estrogen receptor)) | Clinical activity (advanced breast cancer; advanced breast cancer patients) | Tolerability (advanced breast cancer; all doses orally administered)
3 | N#Cc1ccc(O[C@H]2CC[C@H](NC(=O)c3ccc(N4CCC(CN5CCN(c6cc7c(cc6F)C(=O)N(C6CCC(=O)NC6=O)C7=O)CC5)CC4)nn3)CC2)cc1Cl (stereo partly drawn) [ARV-110, bavdegalutamide] | 3.20 | – | basic and Base | 0.33 | 0.99 | 4.25 | predominantly neutral | Oral | – | – | significantly inhibited the growth | > 30% | – | – | –
4 | C=C[C@@H]1C[C@]1(NC(=O)[C@@H]1C[C@@H](Oc2ncc(OC)c3ccc(Cl)cc23)CN1C(=O)[C@@H](NC(=O)OC(C)(C)C)C(C)(C)C)C(=O)NS(=O)(=O)C1CC1 [asunaprevir] | – | – | acidic | – | – | – | – | – | – | – | – | – | – | – | –
5 | Cc1sc2c(c1C)C(c1ccc(Cl)cc1)=N[C@@H](CC(=O)Nc1ccc(OCCOCCOCCOCCNc3cccc4c3C(=O)N(C3CCC(=O)NC3=O)C4=O)cc1)c1nnc(C)n1-2 (stereo partly drawn) [ARV-825] | – | – | nonionizable | – | – | – | – | – | – | – | – | – | – | – | –
